Measured values: patent US12247064B2, “Modified ligand-gated ion channels and methods of use” (Howard Hughes Medical Institute, priority 2017, dated 2025)
Read-outs that look alike come from different tables or passages of the source.

Experiments:
α7GlyR W77F Q79G G175K = molecular target: T1, α7GlyR W77F Q79G G175K (Homo sapiens, UniProt P36544, G175K/Q79G/W77F); test: Agonist potency at chimeric channel; assay type: cell-based; conditions: Table 6
T1 construct: expressed in transfected cells

α7-5HT3 = α7-5HT3 (Homo sapiens, UniProt P36544, M226I/T225I)
α7GlyR Q79G G175K Y115F = molecular target: T2, α7GlyR Q79G G175K Y115F (Homo sapiens, UniProt P36544, G175K/Q79G/Y115F); test: Agonist potency at chimeric channel; assay type: cell-based; conditions: Table 6
T2 construct: expressed in transfected cells

α7^R21D,E41R-5HT3 = molecular target: T3, α7^R21D,E41R-5HT3 (Homo sapiens, UniProt P36544, E41R/M226I/R27D/T225I); test: Whole cell recordings in HEK cells expressing charge reversal channel; assay type: cell-based; conditions: V5 epitope tag
T3 construct: expressed in transfected cells; host or cells: HEK cells

[1] = tested on: α7GlyR G175K / A298G mutant chimeric channels; assay type: cell-based, human; conditions: read-out: Agonist potency
α7^Q79G-GlyR = molecular target: T4, α7^Q79G-GlyR (Homo sapiens, UniProt P36544, Q79G); assay type: cell-based; conditions: HEK cells; Table 2; read-out: Mean EC50 and SEM in parentheses
T4 construct: expressed in transfected cells; host or cells: HEK cells

α7-GlyR^A298G = molecular target: T5, α7-GlyR^A298G (Homo sapiens, UniProt P36544, A298G); assay type: cell-based; conditions: HEK cells; Table 2; read-out: Mean EC50 and SEM in parentheses
T5 construct: expressed in transfected cells; host or cells: HEK cells

α7^Q79A-5HT3 = molecular target: T6, α7^Q79A-5HT3 (Homo sapiens, UniProt P36544, M226I/Q79A/T225I); assay type: cell-based, human α7 nAChR LBD, murine 5HT3 IPD; conditions: HEK cells; Table 1
T6 construct: expressed in transfected cells; host or cells: HEK cells

α7^Q79G-5HT3 = molecular target: T7, α7^Q79G-5HT3 (Homo sapiens, UniProt P36544, M226I/Q79G/T225I); assay type: cell-based, human α7 nAChR LBD, murine 5HT3 IPD; conditions: HEK cells; Table 1
T7 construct: expressed in transfected cells; host or cells: HEK cells

α7^Q79S-5HT3 = molecular target: T8, α7^Q79S-5HT3 (Homo sapiens, UniProt P36544, M226I/Q79S/T225I); assay type: cell-based, human α7 nAChR LBD, murine 5HT3 IPD; conditions: HEK cells; Table 1
T8 construct: expressed in transfected cells; host or cells: HEK cells

α7^Q79A-GlyR = molecular target: T9, α7^Q79A-GlyR (Homo sapiens, UniProt P36544, Q79A); assay type: cell-based; conditions: HEK cells; Table 2; read-out: Mean EC50 and SEM in parentheses
T9 construct: expressed in transfected cells; host or cells: HEK cells

α7-GlyR = α7-GlyR (Homo sapiens, UniProt P36544)
α4β2 nAChR [2] = molecular target: T10, α4β2 nAChR (Homo sapiens, UniProt P17787+P43681); test: Agonist potency at α4β2 nAChR
α4β2 nAChR [3] = molecular target: T10, α4β2 nAChR; assay type: cell-based
Text: FIGS. 14A-14J show ultrapotent chemogenetic agonists (uPSEMs). […] LED: lowest effective dose for mice in SNr rotation assay. Units: nM; parentheses: SEM. Selectivity relative to PSAM^4-GlyR in bold. […] (FIG. 14E) Response amplitude normalized to ACh.

[4] = tested on: mice expressing PSAM^4-GlyR unilaterally in SNr; test: Unilateral SNr silencing rotation assay; assay type: in vivo, mouse; conditions: SNr silencing rotation assay in mice
5HT3-R = molecular target: T11, 5HT3-R (Homo sapiens, UniProt P46098); test: Agonist potency at 5HT3-R; assay type: cell-based; conditions: read-out: EC50MP
T11 sequence (P46098 24-478): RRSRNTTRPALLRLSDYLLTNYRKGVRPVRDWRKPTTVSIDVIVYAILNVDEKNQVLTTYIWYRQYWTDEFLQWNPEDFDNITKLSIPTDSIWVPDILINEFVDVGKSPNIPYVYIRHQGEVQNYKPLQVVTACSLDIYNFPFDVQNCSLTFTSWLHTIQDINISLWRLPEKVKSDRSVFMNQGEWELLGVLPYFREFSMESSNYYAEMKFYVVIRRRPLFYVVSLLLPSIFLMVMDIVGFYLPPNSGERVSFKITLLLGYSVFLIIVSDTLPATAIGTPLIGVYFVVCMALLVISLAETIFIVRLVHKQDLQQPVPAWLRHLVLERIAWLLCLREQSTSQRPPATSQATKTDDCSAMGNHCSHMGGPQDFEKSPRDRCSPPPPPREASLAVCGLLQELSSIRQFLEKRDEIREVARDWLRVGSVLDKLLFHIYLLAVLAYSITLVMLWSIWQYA

α7-5HT3, sequence (P36544 with tags, fused parts or gaps T225I/M226I limits assumed): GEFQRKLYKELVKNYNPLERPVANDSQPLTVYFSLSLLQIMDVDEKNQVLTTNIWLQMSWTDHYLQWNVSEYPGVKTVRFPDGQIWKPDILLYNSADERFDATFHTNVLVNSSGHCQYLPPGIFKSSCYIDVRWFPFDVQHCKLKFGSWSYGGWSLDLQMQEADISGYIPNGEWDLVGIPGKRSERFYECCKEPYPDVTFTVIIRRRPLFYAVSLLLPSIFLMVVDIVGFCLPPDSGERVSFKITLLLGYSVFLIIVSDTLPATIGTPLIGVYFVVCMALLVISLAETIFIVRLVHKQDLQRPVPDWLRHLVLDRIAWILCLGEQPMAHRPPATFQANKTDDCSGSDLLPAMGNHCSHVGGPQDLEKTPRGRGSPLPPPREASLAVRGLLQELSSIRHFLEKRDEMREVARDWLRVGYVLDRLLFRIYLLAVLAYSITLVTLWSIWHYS
T10 sequence (P43681 29-627 limits assumed): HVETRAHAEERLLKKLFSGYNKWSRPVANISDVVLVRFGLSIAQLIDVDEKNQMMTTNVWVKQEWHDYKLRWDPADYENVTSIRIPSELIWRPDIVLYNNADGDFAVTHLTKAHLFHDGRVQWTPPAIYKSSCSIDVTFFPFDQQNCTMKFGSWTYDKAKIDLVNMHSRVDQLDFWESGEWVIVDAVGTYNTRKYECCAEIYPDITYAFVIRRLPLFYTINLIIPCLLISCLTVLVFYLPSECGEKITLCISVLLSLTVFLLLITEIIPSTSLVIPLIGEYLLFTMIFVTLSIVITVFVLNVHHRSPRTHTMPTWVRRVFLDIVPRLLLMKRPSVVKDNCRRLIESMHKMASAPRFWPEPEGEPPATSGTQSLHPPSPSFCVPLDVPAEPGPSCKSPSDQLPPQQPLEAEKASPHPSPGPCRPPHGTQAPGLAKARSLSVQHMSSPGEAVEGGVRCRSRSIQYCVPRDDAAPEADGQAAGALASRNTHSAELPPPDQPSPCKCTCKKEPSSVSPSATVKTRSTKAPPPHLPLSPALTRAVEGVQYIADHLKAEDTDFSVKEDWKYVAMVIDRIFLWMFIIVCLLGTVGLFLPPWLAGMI
T10 sequence (P17787 26-502): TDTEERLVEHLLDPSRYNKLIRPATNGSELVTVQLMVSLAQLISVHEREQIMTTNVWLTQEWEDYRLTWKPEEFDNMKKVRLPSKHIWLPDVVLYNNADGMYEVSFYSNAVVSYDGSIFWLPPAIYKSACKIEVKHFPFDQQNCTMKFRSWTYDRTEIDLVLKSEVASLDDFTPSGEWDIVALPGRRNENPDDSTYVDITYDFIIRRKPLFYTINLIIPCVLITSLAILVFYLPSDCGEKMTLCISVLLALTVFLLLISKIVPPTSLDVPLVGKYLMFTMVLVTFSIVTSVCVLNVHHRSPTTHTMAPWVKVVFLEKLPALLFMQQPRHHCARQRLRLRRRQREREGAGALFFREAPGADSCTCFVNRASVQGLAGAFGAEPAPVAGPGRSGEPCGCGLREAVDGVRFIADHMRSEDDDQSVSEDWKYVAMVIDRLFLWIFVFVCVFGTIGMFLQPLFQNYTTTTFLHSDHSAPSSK
α7-GlyR, sequence (P36544 with tags, fused parts or gaps): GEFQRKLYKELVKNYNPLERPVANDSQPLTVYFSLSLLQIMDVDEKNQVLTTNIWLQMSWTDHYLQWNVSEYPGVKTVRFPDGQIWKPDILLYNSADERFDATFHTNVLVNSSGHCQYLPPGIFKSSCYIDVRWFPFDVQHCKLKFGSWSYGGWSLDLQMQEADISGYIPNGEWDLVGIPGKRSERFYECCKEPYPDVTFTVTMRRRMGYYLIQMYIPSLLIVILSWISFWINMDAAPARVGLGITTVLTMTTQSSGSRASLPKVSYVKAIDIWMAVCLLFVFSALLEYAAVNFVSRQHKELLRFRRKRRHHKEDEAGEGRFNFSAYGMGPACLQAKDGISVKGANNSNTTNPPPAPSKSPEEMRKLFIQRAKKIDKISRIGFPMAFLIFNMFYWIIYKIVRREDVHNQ
T4 sequence (P36544 with tags, fused parts or gaps Q79G): as the sequence (P36544 with tags, fused parts or gaps) above, with Q57G counted along it
T2 sequence (P36544 with tags, fused parts or gaps Q79G/Y115F/G175K): as the sequence (P36544 with tags, fused parts or gaps) above, with Q57G, Y93F, G153K counted along it
T7 sequence (P36544 with tags, fused parts or gaps Q79G/T225I/M226I limits assumed): as the sequence (P36544 with tags, fused parts or gaps T225I/M226I limits assumed) above, with Q57G counted along it
T5 sequence (P36544 with tags, fused parts or gaps, stated change not applied): as the sequence (P36544 with tags, fused parts or gaps) above, with A276G counted along it
T9 sequence (P36544 with tags, fused parts or gaps Q79A): as the sequence (P36544 with tags, fused parts or gaps) above, with Q57A counted along it
T8 sequence (P36544 with tags, fused parts or gaps Q79S/T225I/M226I limits assumed): as the sequence (P36544 with tags, fused parts or gaps T225I/M226I limits assumed) above, with Q57S counted along it
T3 sequence (P36544 with tags, fused parts or gaps R27D/E41R/T225I/M226I): as the sequence (P36544 with tags, fused parts or gaps T225I/M226I limits assumed) above, with R5D, E19R counted along it
T1 sequence (P36544 with tags, fused parts or gaps W77F/Q79G/G175K): as the sequence (P36544 with tags, fused parts or gaps) above, with W55F, Q57G, G153K counted along it
T6 sequence (P36544 with tags, fused parts or gaps Q79A/T225I/M226I limits assumed): as the sequence (P36544 with tags, fused parts or gaps T225I/M226I limits assumed) above, with Q57A counted along it

With `c1ccc2c(c1)Sc1ccccc1N2CC1CN2CCC1CC2` (stereo not shown) [Mequitazine, reference compound] as the compound, how does the EC50 (α7GlyR W77F Q79G G175K) read?
Its EC50 is 150 nM.

And the EC50 (α7-5HT3; read-out: Potency, Table 6)?
The EC50 was > 30 µM.

And the EC50 (α7GlyR Q79G G175K Y115F)?
The EC50 was > 10 µM.

For `O=C(NC1CN2CCC1CC2)c1ccc(Cl)cc1` (stereo not shown) [PNU-282987], which whole cell responses (α7^R21D,E41R-5HT3) is on record?
The whole cell responses was “potent responses”.

And the EC50 ([1]; α7GlyR Q79G A298G G175K Y115F)?
Its EC50 is 9 nM.

What about the EC50 ([1]; α7GlyR Q79G A298G P216I) of the same compound?
The EC50 was 250 nM.

And the EC50 ([1]; α7GlyR Q79G A298G Y115F K395 K396A)?
The EC50 was 110 nM.

What about the EC50 ([1]; α7GlyR Q79G G175K A298G) of the same compound?
Its EC50 is 0.36 nM.

What about the EC50 ([1]; α7GlyR Q79G W77F A298G) of the same compound?
Its EC50 is 1630 nM.

What about the EC50 ([1]; α7GlyR R27D E41R Q79G Y115F) of the same compound?
The EC50 was 340 nM.

Which EC50 (α7-5HT3; read-out: Mean EC50, HEK cells, Table 1) does the source give for `Cn1cc(C(=O)C(=O)NC2CN3CCC2CC3)c2ccccc21` (stereo not shown) [RS56812] here?
The EC50 was 10 µM.

What about the EC50 (α7^Q79G-GlyR) of the same compound?
The EC50 was 2000 nM.

What about the EC50 (α7-GlyR^A298G) of the same compound?
The EC50 was 2300 nM.

And the EC50 (α7^Q79A-5HT3)?
Its EC50 is 6.8 µM.

What about the EC50 (α7^Q79G-5HT3) of the same compound?
The EC50 was 1400 nM.

And the EC50 (α7^Q79S-5HT3)?
Its EC50 is 5.7 µM.

And the EC50 (α7^Q79A-GlyR)?
The EC50 was 3.5 µM.

And the EC50 (α7-GlyR)?
The EC50 was 6.5 µM.

Which EC50 (α7-5HT3; read-out: EC50MP) does the source give for `CCCOc1cnc2cc3c(cc2n1)C1CNCC3C1` (stereo not shown) [compound 817] here?
Its EC50 is > 100 µM.

And the “α4β2 nAChR agonism” value (α4β2 nAChR [2])?
Its value is “do not show evident α4β2 nAChR agonism”.

And the EC50 (α4β2 nAChR [2]; read-out: EC50MP)?
The EC50 was > 30 µM.

What about the “effect on α4β2 nAChR” value (α4β2 nAChR [3]) of the same compound?
The value was “inhibits”.

What about the In vivo potency [4] of the same compound?
The In vivo potency was 0.1 mpk.

What about the EC50 (5HT3-R) of the same compound?
Its EC50 is 1500 ± 1000 nM.

What about the EC50 (α7-GlyR) of the same compound?
The EC50 was > 100 µM.
